Patent US11926619B2, “Certain pladienolide compounds and methods of use” (EISAI R&D MANAGEMENT CO., LTD., priority 2018, dated 2024)

Experiments:
[1] = tested on: WiDr cells (colon cancer cells; wildtype SF3B1); experiment: Cell viability assay (CellTiter-Glo, 72 hr), WiDr cells; format: cell-based; details: Homo sapiens; WiDr cells (wildtype SF3B1); read-out: WiDr GI50
Summary of the method: (§1)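 Cells at 2000/well were exposed to 9 compound concentrations (0.1% DMSO) in duplicate or triplicate for 72 hr at 37 °C. ATP was read by CellTiter-Glo against a time-zero plate and DMSO control growth. Percent growth/viability was plotted against concentration to give Emax; negative values indicate lethality.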

[2] = tested on: WiDr-R cells (colon cancer cells; chemically-induced SF3B1 R1074H mutant); experiment: Cell viability assay (CellTiter-Glo, 72 hr), resistant WiDr-R cells (counter-screen); format: cell-based; details: WiDr-R cells (SF3B1 R1074H mutation, resistant); read-out: WiDr-R GI50
Summary of the method: as §1

[3] = tested on: Panc 05.04 cells (pancreatic cancer cells; Q699H and K700E mutations in SF3B1); experiment: Cell viability assay (CellTiter-Glo, 72 hr), Panc 05.04 cells; format: cell-based; details: Panc 05.04 cells (mutant SF3B1); for Emax: maximum achievable response in tested dose range, negative value = cellular lethality, read-out: Panc 05.04 (mt SF3B1 cells) Emax (%); for GI50: read-out: Panc 05.04 (mt SF3B1 cells), GI50
Summary of the method: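 Panc 05.04 cells treated 72 hr at 37 °C with 9 compound concentrations (0.1% DMSO), duplicate or triplicate. ATP read by CellTiter-Glo; growth inhibition/viability calculated against a time-zero plate and DMSO control growth. Emax is the maximal response over the tested range, negative values meaning lethality.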

SF3b complexes = target: T1, SF3b complexes (Homo sapiens, UniProt O75533+Q7RTV0); experiment: Scintillation proximity assay (SPA) with [3H]-labelled pladienolide probe; format: binding; details: wt SF3B1, read-out: SPA (wt SF3B1 cells) IC50
T1 construct: endogenous in cells
Summary of the method: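 SF3b complexes immunoprecipitated from nuclear extracts with anti-SF3B1 antibody on anti-mouse PVT SPA beads. Beads pre-incubated 30 min with varying PB or PB-OH, then 2.5 nM [3H]-PB added for 30 min; scintillation signal read and fit by non-linear regression.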

Compound	GI50 [1] [nM]	GI50 [2] [nM]	Emax [3] [%]	GI50 [3] [nM]	IC50 (SF3b complexes) [nM]
CC(=O)O[C@H]1/C=C/[C@H](C)[C@@H](/C(C)=C/C=C/[C@@H](C)COC(=O)N2CC[C@H](O)C2)OC(=O)C[C@H](O)CC[C@@]1(C)O	51.5	> 10000	-89.6	45.1	96.5
CC(=O)O[C@H]1/C=C/[C@H](C)[C@@H](/C(C)=C/C=C/[C@@H](C)COC(=O)N2CCC2)OC(=O)C[C@H](O)CC[C@@]1(C)O	138	> 10000	-91.8	44.7	10.7
C/C(=C\C=C\[C@@H](C)c1ccccn1)[C@H]1OC(=O)C[C@H](O)CC[C@@](C)(O)[C@@H](OC(=O)N2CCN(C3CCC3)CC2)/C=C/[C@@H]1C	36.7	> 1000	-83.6	38.9	7.23
CC(=O)O[C@H]1/C=C/[C@H](C)[C@@H](/C(C)=C/C=C/[C@@H](C)COC(=O)N(C)C)OC(=O)C[C@H](O)CC[C@@]1(C)O	46.7	> 10000	-91.2	74.4	18
C/C(=C\C=C\C(C)c1ncccn1)[C@H]1OC(=O)C[C@H](O)CC[C@@](C)(O)[C@@H](OC(=O)N2CCN(C3CCCCCC3)CC2)/C=C/[C@@H]1C (some centres unmarked)	45.9	> 1000	-91.6	31	11.9
C/C(=C\C=C\[C@@H](C)c1ccccn1)[C@H]1OC(=O)C[C@H](O)CC[C@@](C)(O)[C@@H](OC(=O)N2C[C@H]3C[C@H]2CN3C)/C=C/[C@@H]1C	41.5	> 1000	-29.4	56.4	12.3
C/C(=C\C=C\[C@@H](C)COC(=O)N1CC[C@@H](O)C1)[C@H]1OC(=O)C[C@H](O)CC[C@@](C)(O)[C@@H](OC(=O)N2CCN(C3CCCCCC3)CC2)/C=C/[C@@H]1C	5.56	> 1000	-84.5	5.51	7.66
C/C(=C\C=C\[C@@H](C)Cn1cc(C2CC2)nn1)[C@H]1OC(=O)C[C@H](O)CC[C@@](C)(O)[C@@H](OC(=O)N2CCN(C3CCCCCC3)CC2)/C=C/[C@@H]1C	51.8	> 1000	-94.5	38.6	14.1
C/C(=C\C=C\[C@@H](C)COC(=O)N1CCC[C@H]1CF)[C@H]1OC(=O)C[C@H](O)CC[C@@](C)(O)[C@@H](OC(=O)N2CCN(C3CCCCCC3)CC2)/C=C/[C@@H]1C	1.24	> 1000	-72.7	1.75	4.23
C/C(=C\C=C\[C@H](C)c1ccccn1)[C@H]1OC(=O)C[C@H](O)CC[C@@](C)(O)[C@@H](OC(=O)N2CCC(N3CCCCCC3)CC2)/C=C/[C@@H]1C	7.18	> 1000	-93.8	13.6	2.35
C/C(=C\C=C\[C@@H](C)COC(=O)N1CC[C@@H](O)C1)[C@H]1OC(=O)C[C@H](O)CC[C@H](C)[C@@H](OC(=O)N2CCN(C)CC2)/C=C/[C@@H]1C	4.86	> 1000	-83.3	3.37	5.43
CC(=O)O[C@H]1/C=C/[C@H](C)[C@@H](/C(C)=C/C=C/[C@@H](C)COC(=O)N2CCC[C@@H]2C)OC(=O)C[C@H](O)CC[C@@]1(C)O	38.1	> 10000	-90	52.6	27.3
C/C(=C\C=C\[C@@H](C)COC(=O)N1CC[C@H](F)C1)[C@H]1OC(=O)C[C@H](O)CC[C@@](C)(O)[C@@H](OC(=O)N2CCN(C3CCCCCC3)CC2)/C=C/[C@@H]1C	4.3	> 1000	-79.4	1.76	1.93
C/C(=C\C=C\[C@H](C)COC(=O)N1CCCC1)[C@H]1OC(=O)C[C@H](O)CC[C@@](C)(O)[C@@H](OC(=O)N2CCN(C3CCCCCC3)CC2)/C=C/[C@@H]1C	11.8	862	-93.5	11.7	11.6
CC[C@H](O)[C@@H](C)NC(=O)OC[C@H](C)/C=C/C=C(\C)[C@H]1OC(=O)C[C@H](O)CC[C@@](C)(O)[C@@H](OC(C)=O)/C=C/[C@@H]1C	555	> 10000	-92.8	327	53.4
C/C(=C\C=C\[C@@H](C)COC(=O)N1CC=CC1)[C@H]1OC(=O)C[C@H](O)CC[C@@](C)(O)[C@@H](OC(=O)N2CCN(C3CCCCCC3)CC2)/C=C/[C@@H]1C	22.2	> 1000	-89.8	3.68	3.68
C/C(=C\C=C\[C@@H](C)COC(=O)N1CC[C@@H](O)C1)[C@H]1OC(=O)C[C@H](O)CC[C@H](C)[C@@H](OC(=O)N2CCN(C3CCCCCC3)CC2)/C=C/[C@@H]1C	8.27	> 1000	-77.8	10.8	5.67
COC[C@@H]1CCCN1C(=O)OC[C@H](C)/C=C/C=C(\C)[C@H]1OC(=O)C[C@H](O)CC[C@@](C)(O)[C@@H](OC(=O)N2CCN(C3CCCCCC3)CC2)/C=C/[C@@H]1C	29.1	> 1000	-89.1	11.9	16.8
C/C(=C\C=C\[C@@H](C)COC(=O)N1CCC[C@H]1C(=O)O)[C@H]1OC(=O)C[C@H](O)CC[C@@](C)(O)[C@@H](OC(=O)N2CCN(C3CCCCCC3)CC2)/C=C/[C@@H]1C	> 1000	> 1000	35	2640	36.1
CC(=O)O[C@H]1/C=C/[C@H](C)[C@@H](/C(C)=C/C=C/Cc2ccccn2)OC(=O)C[C@H](O)CC[C@@]1(C)O	559	> 10000	87.2	> 10000	> 1200
CC(=O)O[C@H]1/C=C/[C@H](C)[C@@H](/C(C)=C/C=C/[C@H](C)c2ccccn2)OC(=O)C[C@H](O)CC[C@@]1(C)O	205	> 10000	1.96	546	235
C/C(=C\C=C\[C@@H](C)CNC(=O)N1CCCC1)[C@H]1OC(=O)C[C@H](O)CC[C@@](C)(O)[C@@H](OC(=O)N2CCN(C3CCCCCC3)CC2)/C=C/[C@@H]1C	27.6	> 1000	-90.9	19.8	5.24
C/C(=C\C=C\C(C)c1cccnc1)[C@H]1OC(=O)C[C@H](O)CC[C@@](C)(O)[C@@H](OC(=O)N2CCN(C3CCCCCC3)CC2)/C=C/[C@@H]1C (some centres unmarked)	19.7	> 1000	-95.4	10.4	2.51
C/C(=C\C=C\[C@@H](C)COC(=O)N1CCCC1(C)C)[C@H]1OC(=O)C[C@H](O)CC[C@@](C)(O)[C@@H](OC(=O)N2CCN(C)CC2)/C=C/[C@@H]1C	9.61	> 1000	-93.7	7.82	3.73
C/C(=C\C=C\[C@@H](C)CNC(=O)N1CCCC1)[C@H]1OC(=O)C[C@H](O)CC[C@@](C)(O)[C@@H](OC(=O)N2CCN(C)CC2)/C=C/[C@@H]1C	76.6	> 1000	-90.4	54.1	7.62
